According to patent publication US20200230207A1, “TREATMENT OF BONE GROWTH DISORDERS” (FONDAZIONE TELETHON, priority 2015, published 2020):

Assays:
[1] = test system: MPS VII primary chondrocytes; assay: mTORC1 signaling and autophagy flux in MPS VII primary chondrocytes treated with Torin1; type: cell-based, mouse; conditions: 1 μM, 24 hours
Procedure: FIG. 28: Pharmacological inhibition of mTORC1 restores autophagy flux in MPS VII chondrocytes. α-b, biochemical analysis in primary chondrocytes treated with Torin1 (1 μM) for 24 hours (a) and quantification (b). Data shown in (b) are mean+SE of 3 independent experiments.
Primary chondrocytes were isolated from the rib cage of P5 mice (wild-type and MPS VII) and were plated at the density of 10^5 cells/cm^2. After 3 days in culture cells were splitted in 12 wells chamber, synchronized with AA, treated with Torin1 (1 μM) for 24 hours and harvested for biochemical analysis.

GusbKO RCS cells = assay: UVRAG phosphorylation and AV-Lys fusion in GusbKO RCS chondrocytes; type: cell-based, rat; conditions: 1 μM, 6h
Procedure: FIG. 32: mTORC1 inhibits AV-Lys fusion in MPS via UVRAG. A, immunoprecipitation assay testing the increase of UVRAG phosphorylation in RCS GusbKO relative to RCS WT cells. The increase is blunted in the presence of Torin-1 (1 μM; 6h). B, immunoprecipitation assay testing physical interactions between endogenous UVRAG, Rubicon and Beclin-1 in RCS WT and GusbKO RCS chondrocytes after 6h amino acid treatment. Cell lysates were immunoprecipitated with an UVRAG-specific antibody followed by probing with antibodies specific for P-UVRAG (S498), UVRAG, Rubicon or Beclin-1. C, myc-UVRAG was transiently expressed in Gusb^−/− primary chondrocytes. Myc expression, LC3 and P62 were monitored by fluorescence microscope two days post-transfection and after 24h amino acid treatment. Scale bar, 10 μm. Quantitative analysis of P62 and LC3 puncta. Mean value is shown as a horizontal bar. (Student's t-test, *** p<0.0005, n≥20). […] Blot is representative of 3 independent experiments. E, quantification of protein amount normalized to β-actin and relative to RCS WT (ANOVA, P62 P<0.0001, Tukey's post-hoc test, ***p<0.0005, **p<0.005, *p<0.05). […] Scale bar, 10 μm. Quantification of Lamp-1-LC3 co-localization is shown as mean (±s.e.m.) of Mander's Coefficients resulting from three independent experiments (Student's t-test, *p<0.05).

young rats = conditions: cited from earlier work
[2] = test system: kidney transplanted children; conditions: small series of kidney transplanted children; cited from earlier work

Row | SMILES | LC3 II and p62 levels [1] | autophagy defects [1] | phosphorylation of mTORC1 substrates [1] | UVRAG serine 497 (S497) phosphorylation (GusbKO RCS cells) | longitudinal growth (young rats; rats) | angiogenesis, proliferation and hypertrophy of growth cartilage chondrocytes (young rats; young rats) | growth rate compared with control group not treated [2]
1 | CCC(=O)N1CCN(c2ccc(-n3c(=O)ccc4cnc5ccc(-c6cnc7ccccc7c6)cc5c43)cc2C(F)(F)F)CC1 [Torin1] | normalization | rescues | completely suppresses | blunted | – | – | –
2 | CO[C@H]1C[C@@H]2CC[C@@H](C)[C@@](O)(O2)C(=O)C(=O)N2CCCC[C@H]2C(=O)O[C@H]([C@H](C)C[C@@H]2CC[C@@H](O)[C@H](OC)C2)CC(=O)[C@H](C)/C=C(\C)[C@@H](O)[C@@H](OC)C(=O)[C@H](C)C[C@H](C)/C=C/C=C/C=C/1C [rapamycin] | – | – | – | – | impairs longitudinal growth | disrupts angiogenesis and decreases proliferation and hypertrophy of growth cartilage chondrocytes | lower growth rate
